Assays:
A2780 = experiment: Antiproliferative activity against human A2780 cells; type: functional, cell-based
[1] = target: Peptidyl-prolyl cis-trans isomerase NIMA-interacting 1 (Homo sapiens, UniProt Q13526); experiment: Inhibition of Pin1 PPIase activity
Chain of Peptidyl-prolyl cis-trans isomerase NIMA-interacting 1 (Q13526 whole entry): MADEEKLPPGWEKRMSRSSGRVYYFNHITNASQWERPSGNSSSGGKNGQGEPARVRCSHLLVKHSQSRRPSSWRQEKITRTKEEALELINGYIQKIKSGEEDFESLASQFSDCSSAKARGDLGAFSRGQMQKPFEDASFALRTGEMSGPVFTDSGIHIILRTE

Row | Compound | IC50 (A2780) | IC50 [1]
1 | CC(C)(C)C(=O)OCOP(=O)(OCOC(=O)C(C)(C)C)OC[C@@H](/C=C1\CCC[C@H]1C(=O)NCCc1c[nH]c2ccccc12)NC(=O)OCC1c2ccccc2-c2ccccc21 | 26.9 µM | 
2 | O=C(N[C@H](/C=C1\CCC[C@H]1C(=O)NCCc1c[nH]c2ccccc12)COP(=O)(O)O)OCC1c2ccccc2-c2ccccc21 | 46.2 µM | 28.3 µM
